Experiments:
[1] = test system: PGE2 synthesis by 3T3 fibroblasts; assay: Inhibition of PGE2 synthesis by 3T3 fibroblasts (ELISA); format: cell-based; conditions: for [PGE2]: 24 h
Source text: This Example establishes the anti-inflammatory potential of GC-100 by measuring the inhibition of PGE2 synthesis by 3T3 fibroblasts in cell culture.
The cells are nourished in a medium enriched with arachidonic acid which leads to increased secretion of eicosanoids into the medium.
The formation of prostaglandin PGE2 will be followed as a marker of eicosanoid synthesis, because it is a stable molecule secreted preferentially by 3T3 fibroblasts. The anti-inflammatory potential of an active ingredient may then be investigated by following the decrease in secretion of PGE2 in the culture medium.
Quantification of PGE2 will be achieved using an enzyme-linked immunosorbant assay (ELISA). In principle, the PGE2 expressed by the cells in culture medium will compete with enzyme-linked PGE2 for available antibody, which is a constant. The concentration of enzyme-linked PGE2 is also constant and quantified prior to testing. The enzyme linked to PGE2 prior to testing is acetylcholinesterase. Since the quantity of PGE2 expressed by 3T3 cells in culture will vary based on the concentration of GC-100 present, the amount of antibody available to bind to the enzyme-linked PGE2 versus that produced by the 3T3 cells assumes an inverse relationship that is dependent on Brownian motion. After eliminating unreacted PGE2 through washing, substrate is added that binds to the enzyme-PGE2-antibody complex to generate a yellow color that is strongly evident using spectrophotometer set at 412 nm. The amount of light transmitted through the test sample is directly proportional to the intensity of the color change and, consequently, to the concentration of PGE2-enzyme-antibody complex.
Create a mother solution (solution #1) containing complete DMEM, alcohol, and 2×10^5 3T3 fibroblasts for plating onto 25 cm^2 culture dishes. Using a compounding dilution technique, prepare the following solutions, using 5 mL of media per plate: • Solution #2: Solution #1 plus arachidonic acid (10^−3% P/V) • Solution #3: Solution #2 plus indomethacin (0,1,10^−3% P/V) • Solution #4: Solution #2 plus GC-100 0.5% • Solution #5: Solution #2 plus GC-100 1.0%
Incubate all preparations for 24 hours at 37° C. Recover the supernatant media, and if needed deep freeze it at −20° C. before quantification. Count the number of surviving cells using a coulter counter. Establish a calibration curve of the quantity of PGE2. Quantify the supernatant media using an enzyme-linked immunosorbant assay kit specific for PGE2 (Cayman), using a Dynotech microplate reader (MR500) with a filter set at 412 nm. Calculate the % inhibition of PGE2 synthesis. The results are shown in Table 4 and FIG. 10, which is a graph showing mean suppression of PGE2 concentration in test media comprising indomethacin or GC-100.

[2] = test system: collagen I and III synthesis; assay: [3H]-Proline incorporation as measure of collagen deposition; format: cell-based, human
Source text: This human skin substrate consists of neonatal foreskin fibroblasts that secrete a functionally active extracellular matrix grown on a medical-grade nylon mesh cocultured with human neonatal foreskin keratinocytes that differentiate into a multilayered epidermis.
Quantifying proline incorporation can be used to measure potential collagen deposition stimulated by a test substance. This concept is the foundation for the following experiments.

[3] = DMEM + AA + Indomethacin, column A
[4] = DMEM + AA + Indomethacin, column B
[5] = DMEM + AA + Indomethacin, column C

In the case of `COc1ccc2c(c1)c(CC(=O)O)c(C)n2C(=O)c1ccc(Cl)cc1` [Indomethacin, indomethacin, reference compound], the “% change of PGE2 vs DMEM + AA, MEAN” value ([1]; DMEM + AA + Indomethacin) is reported as −87.2%, the “% change of PGE2 vs DMEM + AA” value [1, 3] is reported as −91% and the “[PGE2]” value [1, 3] is reported as 0.27 pg/mL. For the same compound, the “% change of PGE2 vs DMEM + AA” value [1, 4] was −88%, the “[PGE2]” value [1, 4] was 0.35 pg/mL and the “% change of PGE2 vs DMEM + AA” value [1, 5] was −82.6%. The “[PGE2]” value [1, 5] was 0.50 pg/mL and the “suppression of PGE2 expression” value ([1]; indomethacin) was 87%.
In the case of `O=C1O[C@H]([C@@H](O)CO)C(O)=C1O` [ascorbic acid], the “influence of ascorbic acid on proline incorporation” value ([2]; higher than optimal concentrations of ascorbic acid) is reported as “suppress proline incorporation”.
In the case of `ClCc1ccccc1` [benzyl chloride], the “proline incorporation relative to control levels” value [2] is reported as “suppress proline incorporation below control levels”.

From US11793746B2, “Intense skin hydration systems and methods” (priority 2020, dated 2023)
